Measured values taken from US20230374096A1, “OBESITY TREATMENT AND PREVENTION METHODS” (Vault Bioventures, Inc., priority 2022, published 2023).

Assays:
Assay type in all cases: in vivo, human
[1] = Example 18: liraglutide and 18-hour fasting; details: weeks 1-4: 0.75/1.5/1.5/2.25 mg, without exercise or caloric restriction
Excerpt: Patients are subject to a combination HMT/HNT treatment protocol as described in Table 22 below. […] [table]

[2] = Example 16: liraglutide and One-Meal-A-Day; details: One-Meal-A-Day; weeks 1-4: 0.75/1.5/1.5/2.25 mg; without exercise or caloric restriction
Excerpt: Patients are subject to a combination HMT/HNT treatment protocol as described in Table 20 below. […] [table]

[3] = Example 17: liraglutide and 15-hour fasting; details: weeks 1-4: 0.75/1.5/2.25/2.25 mg, without exercise or caloric restriction
Excerpt: Patients are subject to a combination HMT/HNT treatment protocol as described in Table 21 below. […] [table]

[4] = Example 6: semaglutide (oral) and 18-hour fasting; details: weeks 1-4: 1/2/3.5/5 mg, without exercise or caloric restriction
Excerpt: Patients are subject to a combination HMT/HNT treatment protocol as described in Table 10 below. […] [table]

[5] = Example 3: semaglutide (oral) and 18-hour fasting; details: weeks 1-4: .25/.50/.50/1 mg, without exercise or caloric restriction
Excerpt: Patients are subject to a combination HMT/HNT treatment protocol as described in Table 7 below. […] [table]

[6] = Example 4: semaglutide (oral) and One-Meal-A-Day; details: One-Meal-A-Day; weeks 1-4: 1/2/3.5/5 mg; without exercise or caloric restriction
Excerpt: Patients are subject to a combination HMT/HNT treatment protocol as described in Table 8 below. […] [table]

[7] = Example 5: semaglutide (oral) and 15-hour fasting; details: weeks 1-4: 1/2/3.5/5 mg, without exercise or caloric restriction
Excerpt: Patients are subject to a combination HMT/HNT treatment protocol as described in Table 9 below. […] [table]

[8] = Example 2: semaglutide (injection) and 15-hour fasting; details: weeks 1-4: .25/.50/.50/1 mg, without exercise or caloric restriction
Excerpt: Patients are subject to a combination HMT/HNT treatment protocol as described in Table 6 below. […] [table]

[9] = Example 1: clinical study combining semaglutide (injection) and fasting (HMT/HNT), Patient 1
Excerpt: Patient 1 was subject to a combination HMT/HNT treatment protocol as described below.

[10] = Example 14: dulaglutide and 15-hour fasting; details: weeks 1-4: 0.2/0.375/0.375/0.6 mg, without exercise or caloric restriction
Excerpt: Patients are subject to a combination HMT/HNT treatment protocol as described in Table 18 below. […] [table]

[11] = Example 15: dulaglutide and 18-hour fasting; details: weeks 1-4: 0.2/0.375/0.375/0.6 mg, without exercise or caloric restriction
Excerpt: Patients are subject to a combination HMT/HNT treatment protocol as described in Table 19 below. […] [table]

[12] = Example 13: dulaglutide and One-Meal-A-Day; details: One-Meal-A-Day; weeks 1-4: 0.2/0.375/0.375/0.6 mg; without exercise or caloric restriction
Excerpt: Patients are subject to a combination HMT/HNT treatment protocol as described in Table 17 below. […] [table]

With `CCCCCCCCCCCCCCCC(=O)N[C@@H](CCC(=O)NCCCC[C@H](NC(=O)[C@H](C)NC(=O)[C@H](C)NC(=O)[C@H](CCC(N)=O)NC(=O)CNC(=O)[C@H](CCC(=O)O)NC(=O)[C@H](CC(C)C)NC(=O)[C@H](Cc1ccc(O)cc1)NC(=O)[C@H](CO)NC(=O)[C@H](CO)NC(=O)[C@@H](NC(=O)[C@H](CC(=O)O)NC(=O)[C@H](CO)NC(=O)[C@@H](NC(=O)[C@H](Cc1ccccc1)NC(=O)[C@@H](NC(=O)CNC(=O)[C@H](CCC(=O)O)NC(=O)[C@H](C)NC(=O)[C@@H](N)Cc1cnc[nH]1)[C@@H](C)O)[C@@H](C)O)C(C)C)C(=O)N[C@@H](CCC(=O)O)C(=O)N[C@@H](Cc1ccccc1)C(=O)N[C@H](C(=O)N[C@@H](C)C(=O)N[C@@H](Cc1c[nH]c2ccccc12)C(=O)N[C@@H](CC(C)C)C(=O)N[C@H](C(=O)N[C@@H](CCCNC(=N)N)C(=O)NCC(=O)N[C@@H](CCCNC(=N)N)C(=O)NCC(=O)O)C(C)C)[C@@H](C)CC)C(=O)O` [Liraglutide] the “Therapeutic effects (e.g. weight loss)” value [1] was “Desirable therapeutics effects (e.g. weigh loss) are achieved”, the “Therapeutic effects (e.g. weight loss)” value [2] was “Desirable therapeutics effects (e.g. weigh loss) are achieved” and the “Therapeutic effects (e.g. weight loss)” value [3] was “Desirable therapeutics effects (e.g. weigh loss) are achieved”.
With Semaglutide [Semaglutide (oral)] the “Therapeutic effects (e.g. weight loss)” value [4] was “Desirable therapeutics effects (e.g. weigh loss) are achieved”, the “Therapeutic effects (e.g. weight loss)” value [5] was “Desirable therapeutics effects (e.g. weigh loss) are achieved” and the “Therapeutic effects (e.g. weight loss)” value [6] was “Desirable therapeutics effects (e.g. weigh loss) are achieved”. For the same compound, the “Therapeutic effects (e.g. weight loss)” value [7] was “Desirable therapeutics effects (e.g. weigh loss) are achieved”.
For Semaglutide, the “Therapeutic effects (e.g. weight loss)” value [8] was “Desirable therapeutics effects (e.g. weigh loss) are achieved”, the Weight lost ([9]; in 30 days, combination HMT/HNT) was 30 pounds and the Bodyweight reduction ([9]; starting weight 282 lbs, 30 days, weeks 1-4: .25/.50/.50/1 mg, One-Meal-A-Day) was −30 lbs.
For Dulaglutide, the “Therapeutic effects (e.g. weight loss)” value [10] was “Desirable therapeutics effects (e.g. weigh loss) are achieved”, the “Therapeutic effects (e.g. weight loss)” value [11] was “Desirable therapeutics effects (e.g. weigh loss) are achieved” and the “Therapeutic effects (e.g. weight loss)” value [12] was “Desirable therapeutics effects (e.g. weigh loss) are achieved”.
